Reference: patent publication US6858585B1, “Cyclic depsipeptides and drugs containing the same as the active ingredient” (Nisshin Seifun Group Inc., priority 1996, dated 2005)
No end group written: not given here.

Assays:
Assay type in all cases: cell-based, human
[1] = tested on: apolipoprotein B production in Hep G2 cells; experiment: Production of apolipoprotein B in Hep G2 cells, enzyme immunoassay of cultured broth (Example 2); conditions: Conc. 1 μM, 7 hours, control = 100
Protocol: (§1) First, 1 ml portions of Hep G2 cells at 1×10^5 cells/ml suspended in D-MEM medium containing 10% fetal bovine serum were poured into a 24-well tissue culture plate and cultivation was carried out at 37° C. under atmosphere of a mixed gas composed of 5% carbon dioxide and 95% air for 3 days. Thereafter, the medium was removed by means of a pipette, 1 ml of fresh D-MEM medium was added and cultivation was again carried out at 37° C. under atmosphere of a mixed gas composed of 5% carbon dioxide and 95% air for one day. Then, the medium was removed by means of a pipette and washed three times with 0.5 ml of fresh D-MEM medium. […]
The sheep antihuman apolipoprotein B IgG fraction (manufactured by Bindingsite Co., Ltd., U.K.) was dissolved in a 0.05M aqueous sodium hydrogencarbonate solution (pH 9.5) at a concentration of 10 μg/ml. […] The reaction was discontinued by the addition of 100 μl of 2N sulfuric acid, and absorbance at 490 nm was measured using absorbance at 650 nm as a control. The absorbance obtained was defined as that of apolipoprotein B. An absolute amount of apolipoprotein B was determined upon a calibration curve drawn up when a commercially available low density lipoprotein (manufactured by Sigma, U.S.A.) was used as a standard. […]

[2] = tested on: apolipoprotein E production in Hep G2 cells; experiment: Production of apolipoprotein E in Hep G2 cells, enzyme immunoassay of cultured broth (Example 2: 7 h with compound); conditions: Conc. 1 μM, control = 100
Protocol: The mouse antihuman apolipoprotein E monocional antibody (manufactured by BYOSIS, S. A., France) was dissolved in a 0.05M aqueous sodium hydrogencarbonate solution (pH 9.5) at a concentration of […]. 50 μl of this solution was poured in portions into a Nunk immunoplate, which was then allowed to stand at 4° C. for 16 hours. After washing thrice with 300 μl of PBS, 300 μl of the blocking solution was added and the mixture was allowed to stand at 37° C. for 2 hours.
It was again washed three times with 300 μl of PBS, 50 μl of the above cultured broth 1 was added and the mixture was allowed to stand at room temperature for 2 hours. After washing three times with 300 μl of PBS-T, 50 μl of a 3000-fold diluted solution (10% aqueous Block Ace solution) of goat anti-apolipoprotein E polyclonal antibody (manufactured by Chemicon Co., Ltd., U.S.A.) was added and the mixture was allowed to stand at room temperature for 2 hours. […] The reaction was discontinued by the addition of 100 μl of 2N sulfuric acid, and absorbance at 490 nm was measured using absorbance at 650 nm as a control. An absolute amount of apolipoprotein E in cultured broths 1-6 was determined upon a calibration curve drawn up when a commercially available apolipoprotein E (Chemicon Co., Ltd., U.S.A.) was used as a standard. […]

[3] = tested on: apolipoprotein A1 production in Hep G2 cells; experiment: Production of apolipoprotein A1 in Hep G2 cells, enzyme immunoassay of cultured broth (Example 2); conditions: Conc. 1 μM, 7 hours, control = 100
Protocol: as §1, with “medium. 1 ml of fresh D-MEM medium was added and further 10 μl of a solution of the cyclic depsipeptide of the invention or Compound 1, 4, 5, 6, 7 or 8 dissolved in methanol at the concentration as shown in Table 3 was added.” for “medium.”
It was again washed three times with 300 μl of PBS, 100 μl of the above Cultured Broths 7-10 was added and the mixture was allowed to stand at room temperature for 2 hours. […] The reaction was discontinued by the addition of 100 μl of 2N sulfuric acid, and absorbance at 490 nm was measured using absorbance at 650 nm as a control. An absolute amount of apolipoprotein A1 was determined upon a calibration curve drawn up when a commercially available apolipoprotein Al (manufactured by Sigma, U.S.A.) was used as a standard. […]

Compound 7 (QLLVDLI; ester (positions not given here); also: cyclic depsipeptide, ring closure places not given here)
Relative amount of apolipoprotein B (%) [1]: 76%
Relative amount of apolipoprotein E (%) [2]: 163%
Relative amount of apolipoprotein A1 (%) [3]: 135%
